Results as given in ChEMBL document CHEMBL5137019, “Sattahipmycin, a Hexacyclic Xanthone Produced by a Marine-Derived Streptomyces” (J Nat Prod, 2022).
≈ marks a conversion by molar mass, not a printed value. Calls of active or inactive are those of the source. The rule behind the calls is not given here.

Tests used:
[1] = Cytotoxicity against human MRC5 cells assessed as cell growth inhibition and measured after 2 days by WST-8 assay; format: toxicity, cell-based
Bacillus subtilis [2] = assay: Antibacterial activity against Bacillus subtilis KB211 assessed as bacterial growth inhibition by paper disc method; format: functional
NCI-H1299 = assay: Cytotoxicity against human NCI-H1299 cells assessed as cell growth inhibition and measured after 2 days by WST-8 assay; format: functional, cell-based; conditions: NCI-H1299, 48 h
A549 = assay: Cytotoxicity against human A549 cells assessed as cell growth inhibition and measured after 2 days by WST-8 assay; format: functional, cell-based; conditions: A549, 48 h
Escherichia coli [3] = assay: Antibacterial activity against Escherichia coli NBRC 3972 assessed as bacterial growth inhibition by paper disc method; format: functional
Plasmodium falciparum [4] = assay: Antimalarial activity against chloroquine-resistant Plasmodium falciparum K1 assessed as parasite growth inhibition and measured after 72 hrs by ELISA; format: functional, organism-based; conditions: K1, 72 h
[5] = test system: Xanthomonas campestris pv. oryzae; assay: Antibacterial activity against Xanthomonas campestris pv. oryzae KB88 at 1 to 30 ug per disc by paper disc method; format: functional, organism-based; conditions: dose 1-30 µg
Bacillus subtilis [6] = assay: Antibacterial activity against Bacillus subtilis KB211 at 1 to 30 ug paper disc by paper disc method; format: functional, organism-based; conditions: dose 1-30 µg
Kocuria rhizophila = assay: Antibacterial activity against Kocuria rhizophila KB212 assessed as bacterial growth inhibition by paper disc method; format: functional
[7] = Selectivity index, ratio of IC50 for cytotoxicity against human MRC5 cells to IC50 for antimalarial activity against […] Plasmodium falciparum FCR3; format: toxicity, cell-based; conditions: MRC5 cells versus Plasmodium falciparum FCR3, read-out: Ratio IC50
[8] = test system: Xanthomonas campestris pv. oryzae; assay: Antibacterial activity against Xanthomonas campestris pv. oryzae KB88 assessed as bacterial growth inhibition by paper disc method; format: functional
Micrococcus luteus = assay: Antibacterial activity against Micrococcus luteus KB212 at 1 to 30 ug per disc by paper disc method; format: functional, organism-based; conditions: dose 1-30 µg
Staphylococcus aureus [9] = assay: Antibacterial activity against Staphylococcus aureus KB210 assessed as bacterial growth inhibition by paper disc method; format: functional
PANC-1 = assay: Cytotoxicity against human PANC-1 cells assessed as cell growth inhibition and measured after 2 days by WST-8 assay; format: functional, cell-based; conditions: PANC-1, 48 h
HT-29 = assay: Cytotoxicity against human HT-29 cells assessed as cell growth inhibition and measured after 2 days by WST-8 assay; format: functional, cell-based; conditions: HT-29, 48 h
Escherichia coli [10] = assay: Antibiofilm activity against Escherichia coli NBRC 3972 assessed as inhibition of biofilm formation at 15 to 60 ug/ml incubated overnight by crystal violet staining based ELISA; format: functional; conditions: dose 15-60 µg/ml; at 15 to 60 µg/mL
Plasmodium falciparum [11] = assay: Antimalarial activity against chloroquine-sensitive Plasmodium falciparum FCR3 assessed as parasite growth inhibition and measured after 72 hrs by ELISA; format: functional, organism-based; conditions: FCR3, 72 h
Escherichia coli [12] = assay: Bactericidal activity against Escherichia coli NBRC 3972; format: functional
HeLa S3 = assay: Cytotoxicity against human HeLa S3 cells assessed as cell growth inhibition and measured after 2 days by WST-8 assay; format: functional, cell-based; conditions: HeLa S3, 48 h
Staphylococcus aureus [13] = assay: Antibacterial activity against Staphylococcus aureus KB210 at 1 to 30 ug per disc by paper disc method; format: functional, organism-based; conditions: dose 1-30 µg
[14] = Selectivity index, ratio of IC50 for cytotoxicity against human MRC5 cells to IC50 for antimalarial activity against chloroquine-resistant Plasmodium falciparum K1; format: toxicity, cell-based; conditions: MRC5 cells versus Plasmodium falciparum K1, read-out: Ratio IC50

**Q.** For `CCN(CC)CCCC(C)Nc1ccnc2cc(Cl)ccc12` (configuration not stated) [CHLOROQUINE], which IC50 at 2 days [1] is on record?
**A.** Its IC50 at 2 days is 58.2 µM.

**Q.** What does the source list for `COc1c2c(c(O)c3c(=O)c4cccc(O)c4oc13)-c1c(cc3cc(C)[nH]c(=O)c3c1O)C[C@H]2O`?
**A.** MIC (Bacillus subtilis [2]): 0.25 µg/mL (≈ 0.528 µM); IC50 (NCI-H1299): 10.6 µM; IC50 (A549): 1.86 µM; MIC (Escherichia coli [3]): > 250 µg/mL; IC50 (Plasmodium falciparum [4]): 0.27 µM; Activity [5]: Active; Activity (Bacillus subtilis [6]): Active; MIC (Kocuria rhizophila): 0.25 µg/mL (≈ 0.528 µM); selectivity ratio [7]: 0.85; MIC [8]: 0.25 µg/mL (≈ 0.528 µM); Activity (Micrococcus luteus): Active; MIC (Staphylococcus aureus [9]): 0.25 µg/mL (≈ 0.528 µM); IC50 (PANC-1): 12.9 µM; IC50 (HT-29): 1.9 µM; inhibition (INH) (Escherichia coli [10]): 50%; IC50 (Plasmodium falciparum [11]): 0.2 µM; Activity (Escherichia coli [12]): >250 µg/mL; IC50 at 2 days [1]: 0.17 µM; IC50 (HeLa S3): 2.18 µM; Activity (Staphylococcus aureus [13]): Active; selectivity ratio [14]: 0.62

**Q.** What does the source list for `C[C@@H]1CC[C@H]2[C@@H](C)C(=O)O[C@@H]3O[C@@]4(C)CC[C@@H]1[C@]32OO4` [ARTEMISININ]?
**A.** IC50 (Plasmodium falciparum [4]): 0.03 µM; selectivity ratio [7]: 2030; IC50 (Plasmodium falciparum [11]): 0.02 µM; IC50 at 2 days [1]: 50.3 µM; selectivity ratio [14]: 1580
